In PubChem BioAssay (NCI) one finds TGI and GI50 data, which are given here for 18 molecules.

Among the test systems are NCI-H460 lung; NCI-H23 lung; SF-295 CNS; SN12C renal; UACC-62 melanoma; COLO 205 colon; OVCAR-4 ovarian; LOX IMVI melanoma; HOP-92 NSCLC; KM12 colon.
Common to all, as to test: inhibition of tumour cell growth, NCI panel, 48 h

Several values for one entry are separate records, joined by “and”; a condition that tells them apart may be missing. Identical values can stand only once.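 These data come from cells grown in 96-well plates and exposed to compound for 48 hours at five concentrations. At the GI50, growth is halved. TGI is the concentration that stops growth completely.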

On to `COc1ccc(N=C/C=C/Nc2ccc(OC)cc2)cc1`, for which the TGI is 28.1 µM in the assay with NCI-H460 lung; 41.2 µM in the assay with NCI-H23 lung; 21.6 µM with SF-295 CNS; 8.86 µM with SN12C renal; 27.5 µM in the assay on UACC-62 melanoma; 16.3 µM in the assay on COLO 205 colon. Moreover, the TGI with OVCAR-4 ovarian came to 9.99 µM; in the assay on LOX IMVI melanoma, 5.45 µM; with HOP-92 NSCLC, 29.6 µM; in the assay with KM12 colon, 9.55 µM.

Take `CCCCCC(C)C[C@H]1CO[C@H](c2ccc[nH]2)N[C@H]1C(=O)OC` (stereo partly specified): the TGI in the assay on NCI-H460 lung, in the assay on NCI-H23 lung, in the assay on SF-295 CNS, in the assay with SN12C renal, in the assay with UACC-62 melanoma and in the assay with COLO 205 colon was over 100 µM throughout. The TGI with OVCAR-4 ovarian, in the assay on LOX IMVI melanoma, in the assay on HOP-92 NSCLC and in the assay on KM12 colon was over 100 µM each time.

For `CO[P@]1(=O)O[C@@H](c2ccccc2)[C@H](O)[C@]1(O)c1ccccc1`, the TGI in the assay on NCI-H460 lung, in the assay with NCI-H23 lung, in the assay on SF-295 CNS, with SN12C renal, in the assay with UACC-62 melanoma and with COLO 205 colon was over 100 µM in each case. In addition, the TGI in the assay with OVCAR-4 ovarian, in the assay with LOX IMVI melanoma, with HOP-92 NSCLC and with KM12 colon was over 100 µM throughout.

Turning to `NNC(=O)c1ccccc1NC(=O)/C(=C/c1ccccc1)NC(=O)c1ccccc1`, the TGI with NCI-H460 lung, with NCI-H23 lung, with SF-295 CNS, in the assay on SN12C renal, in the assay on UACC-62 melanoma and in the assay on COLO 205 colon was over 100 µM throughout. Further, the TGI in the assay with OVCAR-4 ovarian, in the assay with LOX IMVI melanoma, with HOP-92 NSCLC and in the assay on KM12 colon was over 100 µM in each case.

As to `Cc1c2cc[n+](C)cc2c(C)c2c1[nH]c1ccccc12`, the TGI in the assay with NCI-H460 lung is 12.3 µM and 11.8 µM; with NCI-H23 lung, 4.8 µM and 6.39 µM; in the assay on SF-295 CNS, 1.71 µM and 2.08 µM; with SN12C renal, 1.29 µM and 1.2 µM; in the assay with UACC-62 melanoma it was 22.5 µM and 27.4 µM; with COLO 205 colon, 4.57 µM and 3.37 µM. In addition, the TGI was 15 µM and 10.9 µM in the assay with OVCAR-4 ovarian; 48.3 µM and 27.4 µM with LOX IMVI melanoma; 11 µM and 10.1 µM in the assay with HOP-92 NSCLC; 12.1 µM with KM12 colon.

Turning to `CCOC(=O)/C(=C\c1ccc(CO)o1)P(=O)(OCC)OCC`, the TGI is 32.6 µM in the assay on NCI-H460 lung; 57.8 µM in the assay on NCI-H23 lung; over 100 µM with SF-295 CNS; 96.2 µM in the assay with SN12C renal; over 100 µM with UACC-62 melanoma; 51 µM with COLO 205 colon. In addition, the TGI with OVCAR-4 ovarian was 35.9 µM; with LOX IMVI melanoma, 41.3 µM; with HOP-92 NSCLC, 53.7 µM; in the assay with KM12 colon it was over 100 µM.

For the molecule `C/C(=N/O)c1cccc(Nc2nc3ccccc3c3[nH]c4ccccc4c23)c1`, the TGI in the assay with NCI-H460 lung came out at 4.74 µM; with NCI-H23 lung it was 11.8 µM; in the assay with SF-295 CNS, 5.58 µM; in the assay on SN12C renal, 13.4 µM; with UACC-62 melanoma it was 4.65 µM; in the assay with COLO 205 colon it was 7.1 µM. For the same molecule, the TGI in the assay with OVCAR-4 ovarian is 6.96 µM; in the assay with LOX IMVI melanoma, 6.06 µM; in the assay on HOP-92 NSCLC, 6.95 µM; in the assay with KM12 colon, 9.92 µM.

Take `CC(=O)C(=C(I)I)c1ccccc1`: the TGI in the assay on NCI-H460 lung is over 100 µM; in the assay with NCI-H23 lung, 36.2 µM; in the assay on SF-295 CNS it was 50.1 µM; in the assay with SN12C renal it was 28.4 µM; in the assay with UACC-62 melanoma, 51.4 µM; with COLO 205 colon, 28.9 µM. For the same molecule, the TGI was 31.3 µM with OVCAR-4 ovarian, 49.1 µM with LOX IMVI melanoma, 64.5 µM in the assay with HOP-92 NSCLC and 41.4 µM in the assay with KM12 colon.

Turning to `COc1cccc(C2c3cc4c(cc3OC(N3CCOCC3)C2C)OCO4)c1O` (stereo unspecified), the TGI is 20.4 µM in the assay on NCI-H460 lung; 52.6 µM with NCI-H23 lung; 42.9 µM in the assay on SF-295 CNS; 60.5 µM in the assay on SN12C renal; 40.2 µM in the assay on UACC-62 melanoma; 22.7 µM with COLO 205 colon. Further, the TGI in the assay on OVCAR-4 ovarian was over 100 µM; in the assay on LOX IMVI melanoma, 25 µM; in the assay on HOP-92 NSCLC, 71.4 µM; in the assay on KM12 colon, 46.9 µM.

`Nc1cc(CO)cc(Nc2c3ccccc3nc3occc23)c1`: the TGI in the assay on NCI-H460 lung was 64.3 µM; in the assay on NCI-H23 lung, 71.7 µM; in the assay with SF-295 CNS it was over 100 µM; with SN12C renal, over 100 µM; in the assay on UACC-62 melanoma, 86.8 µM; in the assay on COLO 205 colon, 85.7 µM. The TGI in the assay on OVCAR-4 ovarian is 54.5 µM; in the assay with LOX IMVI melanoma, over 100 µM; in the assay with HOP-92 NSCLC, over 100 µM; in the assay on KM12 colon, over 100 µM.

As to `O=C1CSC2(CCN(CCCN3c4ccccc4Sc4ccc(Cl)cc43)CC2)N1`, the TGI in the assay with NCI-H460 lung was 15.2 µM; in the assay with NCI-H23 lung it was 24.1 µM; in the assay on SF-295 CNS, 22 µM; in the assay with SN12C renal, 22.7 µM; with UACC-62 melanoma it was 23.7 µM; in the assay with COLO 205 colon it was 22.5 µM. The TGI was 23.1 µM with OVCAR-4 ovarian, 16.6 µM in the assay with LOX IMVI melanoma, 20.3 µM in the assay with HOP-92 NSCLC and 19.1 µM in the assay with KM12 colon.

Turning to `CC(=O)Nc1ccc(Nc2nc(=O)[nH]c(=O)[nH]2)cc1`, the TGI in the assay with NCI-H460 lung, with NCI-H23 lung, in the assay on SF-295 CNS, with SN12C renal, with UACC-62 melanoma and in the assay with COLO 205 colon was over 100 µM in each case. Also, the TGI in the assay with OVCAR-4 ovarian, with LOX IMVI melanoma, in the assay with HOP-92 NSCLC and in the assay on KM12 colon was over 100 µM throughout.

Regarding `CN(C)Cc1cc(C(=O)O)cc(CN(C)C)c1O`, the TGI in the assay on NCI-H460 lung, in the assay on NCI-H23 lung, in the assay on SF-295 CNS, in the assay with SN12C renal, in the assay with UACC-62 melanoma and in the assay on COLO 205 colon was over 100 µM each time. The TGI with OVCAR-4 ovarian, in the assay with LOX IMVI melanoma, in the assay on HOP-92 NSCLC and in the assay with KM12 colon was over 100 µM each time.

For `COc1cc2c(cc1OCCCC(=O)Nc1cc(C(=O)Nc3cc(C(=O)NCCCN(C)C)n(C)n3)n(C)n1)N=CC1CCCN1C2=O` (stereo unspecified), the TGI was over 100 µM in the assay with NCI-H460 lung; 39.1 µM with NCI-H23 lung; over 100 µM in the assay on SF-295 CNS; 30.1 µM in the assay with SN12C renal; 57.3 µM with UACC-62 melanoma; 26.3 µM in the assay with COLO 205 colon. The TGI in the assay on OVCAR-4 ovarian is 26.5 µM; in the assay on LOX IMVI melanoma, 57 µM; with HOP-92 NSCLC it was 33.2 µM; with KM12 colon, over 100 µM.

Take `NS(=O)(=O)c1ccc(/C=C/c2cccc(O)c2)cc1`: the TGI is over 100 µM with NCI-H460 lung; over 100 µM in the assay on NCI-H23 lung; over 100 µM in the assay with SF-295 CNS; over 100 µM in the assay with SN12C renal; 50.4 µM in the assay with UACC-62 melanoma; 45.9 µM in the assay with COLO 205 colon. For the same molecule, the TGI in the assay with OVCAR-4 ovarian was over 100 µM; in the assay with LOX IMVI melanoma it was over 100 µM; with HOP-92 NSCLC, 65.9 µM; with KM12 colon, over 100 µM. The GI50 in the assay with NCI-H23 lung is 46.1 µM; in the assay on UACC-62 melanoma it was 18.6 µM; in the assay on OVCAR-4 ovarian it was 27.8 µM; in the assay with LOX IMVI melanoma it was 43 µM; with HOP-92 NSCLC, 17.4 µM; with KM12 colon, 35.4 µM.

In the case of `COc1cc2[nH]c(-c3ccccc3)cc(=O)c2cc1OC`, the TGI was over 66.6 µM in the assay with NCI-H460 lung; over 84.6 µM in the assay with NCI-H23 lung; over 100 µM in the assay with SF-295 CNS; over 100 µM in the assay with SN12C renal; over 89 µM with UACC-62 melanoma; over 33.3 µM in the assay with COLO 205 colon. The TGI was over 100 µM in the assay with OVCAR-4 ovarian, over 100 µM with LOX IMVI melanoma, over 100 µM with HOP-92 NSCLC and over 74.9 µM with KM12 colon.

Turning to `COC(=O)/C=C1/OC(c2ccccc2)=C(Cl)C1=O`, the TGI in the assay on NCI-H460 lung was over 77.6 µM; in the assay with NCI-H23 lung it was 39.4 µM; in the assay with SF-295 CNS, over 65.1 µM; with SN12C renal, over 60.1 µM; in the assay with UACC-62 melanoma, 38.8 µM; in the assay with COLO 205 colon it was 30.1 µM. Besides, the TGI with OVCAR-4 ovarian stood at 39 µM; in the assay with LOX IMVI melanoma, 26.8 µM; in the assay with HOP-92 NSCLC it was 42.7 µM; in the assay on KM12 colon it was 45.6 µM.

Regarding `COc1ccc2nc3c([N+](=O)[O-])ccc4c3c(c2c1)NCCN4C`, the TGI in the assay on NCI-H460 lung was determined as 1.48 µM; with NCI-H23 lung, 6.39 µM; with SF-295 CNS it was 7.58 µM; in the assay with SN12C renal, 9.29 µM; in the assay with UACC-62 melanoma it was 2.88 µM; in the assay with COLO 205 colon, 2.54 µM. Further, the TGI worked out at 3.57 µM in the assay on OVCAR-4 ovarian, 4.71 µM in the assay with LOX IMVI melanoma, 6.44 µM in the assay with HOP-92 NSCLC and 23.2 µM in the assay with KM12 colon.
